Laboratory results from PMC6757277, “Structural Basis of Glycerophosphodiester Recognition by the Mycobacterium tuberculosis Substrate-Binding Protein UgpB” (ACS Chemical Biology, 2019).

Target: Mtb UgpB (Mycobacterium tuberculosis, UniProt P71619)
Assay: biochemical

Mtb UgpB, sequence (P71619 entry or part of it): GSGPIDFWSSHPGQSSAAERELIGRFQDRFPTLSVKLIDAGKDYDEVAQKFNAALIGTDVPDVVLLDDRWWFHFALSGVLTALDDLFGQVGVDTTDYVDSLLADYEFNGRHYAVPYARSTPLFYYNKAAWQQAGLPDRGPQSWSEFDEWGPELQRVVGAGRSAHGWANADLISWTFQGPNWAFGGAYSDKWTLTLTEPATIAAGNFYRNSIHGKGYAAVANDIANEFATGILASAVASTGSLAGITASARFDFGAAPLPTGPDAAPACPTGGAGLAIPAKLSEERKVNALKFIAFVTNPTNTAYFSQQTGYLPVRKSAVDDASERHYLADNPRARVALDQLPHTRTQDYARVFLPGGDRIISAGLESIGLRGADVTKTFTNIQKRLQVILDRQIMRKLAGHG

SMILES	Kd
O=P(O)(O)O[C@H]1[C@H](O)[C@@H](O)[C@H](OP(=O)(O)OC[C@H](O)CO)[C@H](O)[C@@H]1O [GPI4P, glycerophosphoinositol-4-phosphate]	290 ± 54.1 µM
O=P(O)(OC[C@H](O)CO)O[C@@H]1[C@H](O)[C@H](O)[C@@H](O)[C@H](O)[C@H]1O [GPI, glycerophosphoinositol]	1050 ± 313 µM
